The results in this text go back to US10738056B2 (Aduro BioTech, Inc., priority 2017, dated 2020).

The pIC50 is the IC50 on a negative log10 scale, so that one unit is a factor of ten.

For test [1], the target named is Human cGAS amino acids 155-522 (Homo sapiens (Human), UniProt Q8N884). Briefly: cGAS biochemical activity assay (ATP remaining, Kinase-Glo Max luminescence). The following applies: human cGAS 155-522, ATP remaining (Kinase-Glo Max); read-out: cGAS IC50. In general terms: In Kinase-Glo more light means more ATP remaining.
Test [2] relates to cGAS/STING pathway in THP1 cells. Briefly: THP1 cell-based cGAS/STING pathway activity assay (IRF-3-linked luciferase reporter). The settings on record: Homo sapiens, THP-1. The method, boiled down: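 THP1 cells carrying an IRF-3-driven luciferase reporter were read across a range of compound concentrations, and IC50 values were derived from these concentration responses; the assay upper limit was 100 μM.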
On the technique in general: In a reporter assay the amount or activity of a reporter protein is the signal.

The structures appear in SMILES notation. pIC50: −log10 of the molar value.

Sequence of Human cGAS amino acids 155-522 (Q8N884 157-522): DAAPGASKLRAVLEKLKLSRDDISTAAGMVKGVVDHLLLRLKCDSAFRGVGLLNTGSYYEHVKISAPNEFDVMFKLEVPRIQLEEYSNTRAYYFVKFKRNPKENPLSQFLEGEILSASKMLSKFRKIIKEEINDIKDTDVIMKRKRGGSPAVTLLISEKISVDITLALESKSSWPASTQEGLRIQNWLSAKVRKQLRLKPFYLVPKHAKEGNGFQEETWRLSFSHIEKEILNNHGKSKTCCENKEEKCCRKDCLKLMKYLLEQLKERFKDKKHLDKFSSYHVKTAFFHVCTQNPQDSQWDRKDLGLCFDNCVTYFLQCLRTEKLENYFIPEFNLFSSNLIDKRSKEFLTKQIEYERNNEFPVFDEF

Regarding `COc1ccnc(NC(=O)c2c(C)[nH]c3c(-c4ccccc4)c(C(F)(F)F)nn3c2=O)n1` [Compound A1104, N-(4-methoxypyrimidin-2-yl)-5-methyl-7-oxo-3-phenyl-2-(trifluoromethyl)-4,7-dihydropyrazolo[1,5-a]pyrimidine-6-carboxamide], the pIC50 was more than 4.70 in test [1] and 4.00 to 4.70 in test [2].
In the case of `COc1cc(NC(=O)c2c(C)[nH]c3c(-c4ccccc4)c(C(F)(F)F)nn3c2=O)cc(OC)c1` [Compound A1067, N-(3,5-dimethoxyphenyl)-5-methyl-7-oxo-3-phenyl-2-(trifluoromethyl)-4,7-dihydropyrazolo[1,5-a]pyrimidine-6-carboxamide], the figures for the pIC50 in test [1] and in test [2] were more than 4.70 and less than 4.00, respectively.
Regarding `Cc1[nH]c2c(-c3ccccc3)c(C(F)(F)F)nn2c(=O)c1-c1nc2ccccc2o1` [Compound C1011, 6-(benzo[d]oxazol-2-yl)-5-methyl-3-phenyl-2-(trifluoromethyl)pyrazolo[1,5-a]pyrimidin-7(4H)-one], the pIC50 was less than 3.60 in test [1] and more than 4.70 in test [2].
`Cc1[nH]c2c(-c3ccccc3)c(C(F)(F)F)nn2c(=O)c1C(=O)Nc1ccn(C)n1` [Compound A1029, 5-methyl-N-(1-methyl-1H-pyrazol-3-yl)-7-oxo-3-phenyl-2-(trifluoromethyl)-4,7-dihydropyrazolo[1,5-a]pyrimidine-6-carboxamide]: the pIC50 in test [1] was more than 4.70; in test [2], 4.00 to 4.70.
For `COc1cc([N+](C)(C)C)cc2oc(-c3c(C)[nH]c4c(-c5ccccc5)c(C(F)(F)F)nn4c3=O)nc12` [Compound C1163, 4-methoxy-N,N,N-trimethyl-2-(5-methyl-7-oxo-3-phenyl-2-(trifluoromethyl)-4,7-dihydropyrazolo[1,5-a]pyrimidin-6-yl)benzo[d]oxazol-6-aminium], the pIC50 is more than 4.70 in test [1] and less than 4.00 in test [2].
Take `CCc1[nH]c2c(-c3ccccc3)c(C(F)(F)F)nn2c(=O)c1-c1nc2c(OC)cccc2o1` [Compound C1183, 5-ethyl-6-(4-methoxybenzo[d]oxazol-2-yl)-3-phenyl-2-(trifluoromethyl)pyrazolo[1,5-a]pyrimidin-7(4H)-one]: the pIC50 in test [1] and in test [2] was more than 4.70 each time.
Regarding `Cc1[nH]c2c(-c3ccccc3)c(C(F)(F)F)nn2c(=O)c1C(=O)Nc1cc(C)n(C)n1` [Compound A1079, N-(1,5-dimethyl-1H-pyrazol-3-yl)-5-methyl-7-oxo-3-phenyl-2-(trifluoromethyl)-4,7-dihydropyrazolo[1,5-a]pyrimidine-6-carboxamide], the pIC50 in test [1] was more than 4.70; in test [2], less than 4.00.
With `Cc1cnc(NC(=O)c2c(C)[nH]c3c(-c4ccccc4)c(C(F)(F)F)nn3c2=O)o1` [Compound A1075, 5-methyl-N-(5-methyloxazol-2-yl)-7-oxo-3-phenyl-2-(trifluoromethyl)-4,7-dihydropyrazolo[1,5-a]pyrimidine-6-carboxamide], the pIC50 in test [1] was more than 4.70; in test [2], 4.00 to 4.70.
Take `COc1cccc2oc(-c3c(C(=O)NCC(O)C(F)(F)F)[nH]c4c(-c5ccccc5)c(C(F)(F)F)nn4c3=O)nc12` (stereo not shown) [Compound C1209, 6-(4-methoxybenzo[d]oxazol-2-yl)-7-oxo-3-phenyl-N-(3,3,3-trifluoro-2-hydroxypropyl)-2-(trifluoromethyl)-4,7-dihydropyrazolo[1,5-a]pyrimidine-5-carboxamide]: the values for the pIC50 in test [1] and in test [2] were more than 4.70 and less than 4.00, respectively.
Consider `Cc1[nH]c2c(-c3ccccc3)c(C(F)(F)F)nn2c(=O)c1C(=O)NS(=O)(=O)c1ccccc1` [Compound A1116, 5-methyl-7-oxo-3-phenyl-N-(phenylsulfonyl)-2-(trifluoromethyl)-4,7-dihydropyrazolo[1,5-a]pyrimidine-6-carboxamide], for which the values for the pIC50 in test [1] and in test [2] were more than 4.70 and 4.00 to 4.70, respectively.
For `Cc1[nH]c2c(-c3ccccc3)c(C(F)(F)F)nn2c(=O)c1-c1nnc(N2CCCC2)o1` [Compound D1014, 5-methyl-3-phenyl-6-(5-(pyrrolidin-1-yl)-1,3,4-oxadiazol-2-yl)-2-(trifluoromethyl)pyrazolo[1,5-a]pyrimidin-7(4H)-one], the figures for the pIC50 in test [1] and in test [2] were more than 4.70 and less than 4.00, respectively.
Regarding `COCc1[nH]c2c(-c3ccccc3)c(C(F)(F)F)nn2c(=O)c1-c1ncc(C2CCCC2)o1` [Compound C1013, 6-(5-cyclopentyloxazol-2-yl)-5-(methoxymethyl)-3-phenyl-2-(trifluoromethyl)pyrazolo[1,5-a]pyrimidin-7(4H)-one], the negative-log IC50 (pIC50) in test [1] was less than 3.60; in test [2], more than 4.70.
Consider `Cc1[nH]c2c(-c3ccccc3)c(C(F)(F)F)nn2c(=O)c1-c1nnc(C(C)(O)C(F)(F)F)o1` (stereo not shown) [Compound D1008, 5-methyl-3-phenyl-6-(5-(1,1,1-trifluoro-2-hydroxypropan-2-yl)-1,3,4-oxadiazol-2-yl)-2-(trifluoromethyl)pyrazolo[1,5-a]pyrimidin-7(4H)-one], for which the pIC50 was 3.60 to 4.70 in test [1] and less than 4.00 in test [2].
As to `COc1cccc2oc(-c3c(C(=O)O)[nH]c4c(-c5ccccc5)c(C(F)(F)F)nn4c3=O)nc12` [Compound C1131, 6-(4-methoxybenzo[d]oxazol-2-yl)-7-oxo-3-phenyl-2-(trifluoromethyl)-4,7-dihydropyrazolo[1,5-a]pyrimidine-5-carboxylic acid], the values for the pIC50 in test [1] and in test [2] were more than 4.70 and less than 4.00, respectively.
As for `COc1cccc2oc(-c3c(C)[nH]c4c(-c5ccccc5)c(C)nn4c3=O)nc12` [Compound C1042, 6-(4-methoxybenzo[d]oxazol-2-yl)-2,5-dimethyl-3-phenylpyrazolo[1,5-a]pyrimidin-7(4H)-one], the pIC50 in test [1] and in test [2] was more than 4.70 each time.
Regarding `Cc1nn2c(=O)c(-c3nc4c(o3)CCCC4)c(C)[nH]c2c1-c1ccccc1` [Compound C1032, 2,5-dimethyl-3-phenyl-6-(4,5,6,7-tetrahydrobenzo[d]oxazol-2-yl)pyrazolo[1,5-a]pyrimidin-7(4H)-one], the pIC50 in test [1] was more than 4.70; in test [2] it was 4.00 to 4.70.
As for `CCc1cccc2oc(-c3c(C)[nH]c4c(-c5ccccc5)c(C#N)nn4c3=O)nc12` [Compound C1188, 6-(4-ethylbenzo[d]oxazol-2-yl)-5-methyl-7-oxo-3-phenyl-4,7-dihydropyrazolo[1,5-a]pyrimidine-2-carbonitrile], the pIC50 in test [1] and in test [2] was more than 4.70 in each case.
Regarding `COc1ccc(C#N)c2oc(-c3c(C)[nH]c4c(-c5ccccc5)c(C(F)(F)F)nn4c3=O)nc12` [Compound C1100, 4-methoxy-2-(5-methyl-7-oxo-3-phenyl-2-(trifluoromethyl)-4,7-dihydropyrazolo[1,5-a]pyrimidin-6-yl)benzo[d]oxazole-7-carbonitrile], the pIC50 in test [1] is more than 4.70; in test [2] it was 4.00 to 4.70.
For the molecule `COc1cccc2oc(-c3c(COC4COC4)[nH]c4c(-c5ccccc5)c(C(F)(F)F)nn4c3=O)nc12` [Compound C1152, 6-(4-methoxybenzo[d]oxazol-2-yl)-5-((oxetan-3-yloxy)methyl)-3-phenyl-2-(trifluoromethyl)pyrazolo[1,5-a]pyrimidin-7(4H)-one], the results for the pIC50 in test [1] and in test [2] were more than 4.70 and 4.00 to 4.70, respectively.
Turning to `Cc1[nH]c2c(-c3ccccc3)c(C(F)(F)F)nn2c(=O)c1C(=O)Nc1ccn(C(C)C)n1` [Compound A1065, N-(1-isopropyl-1H-pyrazol-3-yl)-5-methyl-7-oxo-3-phenyl-2-(trifluoromethyl)-4,7-dihydropyrazolo[1,5-a]pyrimidine-6-carboxamide], the figures for the pIC50 in test [1] and in test [2] were more than 4.70 and 4.00 to 4.70, respectively.
With `Cc1[nH]c2c(-c3ccccc3)c(C#N)nn2c(=O)c1-c1ccccc1` [Compound C1273, 5-methyl-7-oxo-3,6-diphenyl-4,7-dihydropyrazolo[1,5-a]pyrimidine-2-carbonitrile], the negative logarithm of the IC50 (pIC50) in test [1] and in test [2] was more than 4.70 throughout.
`COc1cccc2oc(-c3c(COCc4cnc[nH]4)[nH]c4c(-c5ccccc5)c(C(F)(F)F)nn4c3=O)nc12` [Compound C1182, 5-(((1H-imidazol-5-yl)methoxy)methyl)-6-(4-methoxybenzo[d]oxazol-2-yl)-3-phenyl-2-(trifluoromethyl)pyrazolo[1,5-a]pyrimidin-7(4H)-one]: the pIC50 in test [1] is more than 4.70; in test [2], less than 4.00.
For `COc1nc(N)nc2oc(-c3c(C)[nH]c4c(-c5ccccc5)c(C(F)(F)F)nn4c3=O)nc12` [Compound C1174, 6-(5-amino-7-methoxyoxazolo[5,4-d]pyrimidin-2-yl)-5-methyl-3-phenyl-2-(trifluoromethyl)pyrazolo[1,5-a]pyrimidin-7(4H)-one], the pIC50 in test [1] is more than 4.70; in test [2] it was less than 4.00.
